Results from patent US6787561B1, “Benzimidazole compounds” (Fuji Photo Film Co., Ltd., priority 1999, dated 2004).
Where two headings read alike, the source gives them in different places.

Experiments:
[1] = AUC (area under the plasma concentration) after oral administration to mice
Experimental: (§1) The compounds of the present invention were orally administered to mice to evaluate AUC (area under the plasma concentration).
(§2) 8-week old BALB/cA male mice (Charles River Japan) were conditioned for one week after arrival and then used. Each test substance was dispersed in a medium containing 10% macrogol (Yoshida Seiyaku) and 90% physiological saline (Hikari Seiyaku) to prepare 5 mg/ml test substance suspension. Each prepared suspension was orally administered to 6 mice (30 mg/kg) at the same time, and cervical spine of one mouse was dislocated at each time, i.e., immediately after the administration, and 30 minutes, 1 hour, 2 hours, 4 hours and 6 hours after the administration. The whole blood was collected from abdominal aorta and blood level of the test substance was determined by liquid chromatography.

[2] = tested on: mouse peritoneal macrophages; assay: Suppression of foaming of macrophages: cholesterol ester yield in mouse peritoneal macrophages loaded with liposomes; assay type: cell-based; conditions: for activity at 5 µM: Mus musculus, Peritoneal macrophage, 16 h, read-out: CE yield (%)
Experimental: Activity of the compounds of the present invention for suppressing the foaming of macrophages, which triggers arterial sclerosis, was examined.
(1) In vitro experiment using mouse peritoneal macrophages,
15-Week old female ICR mice (Nippon SLC) were subjected to bleeding by cutting off their cervicalis, and Hanks buffer (Nippon Seiyaku) was injected into their peritoneal cavities. After abdominal regions of the mice were massaged, the buffer was recovered immediately, and then the resulting buffer was centrifuged at 1,000 r.p.m. for five minutes to collect peritoneal macrophages. Then, the collected macrophages were suspended in GTI medium (Wako Pure Chemical Industries), and inoculated onto a 24-well microtiter plate. After the macrophages were cultivated at 37° C. under 5% CO2 for two hours, the culture medium was changed with Dulbecco Modified Eagle Medium (MEM, Nippon Seiyaku). The macrophages were further cultivated at 37° C. under 5% CO2 for 16 hours, and then a test compound and liposomes were added to the culture.
1) Test compound: dissolved in DMSO (Wako Pure Chemical Industries),
2) Liposomes: PC/PS/DCP/CHOL=50/50/10/75 (nmol)
After cultivation was further continued at 37° C. under 5% CO2 for 16 hours, lipid fraction was extracted with chloroform and methanol. The extracted lipid fraction was dissolved in isopropyl alcohol, and the produced cholesterol ester (CE) was quantified by an enzymatic luminescence method. Yield of the cholesterol ester was calculated as a relative ratio based on yield of the control as 100% where no test compound was added.

[3] = mouse, in vivo, po, 30 mg/kg
Experimental: as §1, §2

[4] = male, BALB/cA, mouse, plasma, po, 30 mg/kg
[5] = test compound 5 μM, cholesterol ester yield relative to control without test compound = 100%, smaller value = more potent suppression

| Molecule | AUC [1, 4] [ng·h/mL] | activity at 5 µM [2, 5] [%] | also measured |
| --- | --- | --- | --- |
| c1ccc(OCCCCCSc2nc3ccccc3[nH]2)nc1 [Compound 1, 2-(5-(2-pyridyloxy)pentylthio)benzimidazole] | 340 | 4.1 | – |
| c1ccc2[nH]c(SCCOCCNc3nc4ccccc4o3)nc2c1 [Compound 35, 2-(2-(2-(2-benzoxazolylamino)ethoxy)ethylthio)-benzimidazole] | – | 9.7 | – |
| c1ccc2[nH]c(SCCCCCOc3nccs3)nc2c1 [Compound 5] | 100 | 11 | – |
| CC(=O)Nc1ccc2nc(SCCCCCOc3ccccn3)[nH]c2c1 [Compound 18, 5-acetylamino-2-(5-(2-pyridyloxy)pentylthio)benzimidazole] | – | 19 | – |
| c1ccc(OCCCCCCCCSc2nc3ccccc3[nH]2)nc1 [Compound 10, 2-(8-(2-pyridyloxy)octylthio)benzimidazole] | – | 12 | – |
| COCn1c(SCCCCCNc2cnccn2)nc2ccccc21 [Compound 28, 1-methoxymethyl-2-(5-(N-(2-pyrazyl)amino)pentylthio)-benzimidazole] | – | – | AUC [3]: 410 ng·h/mL; CE yield (%) [2, 5]: 24% |
| Cn1c(OCCCCCSc2nc3ccccc3[nH]2)nc2ccccc21 [Compound 9] | 110 | 6.2 | – |
| c1ccc2[nH]c(SCCCCCNc3nc[nH]n3)nc2c1 [Compound 29, 2-(5-(3-(1,2,4-triazyl)amino)pentylthio)benzimidazole] | – | – | AUC [3]: 180 ng·h/mL; CE yield (%) [2, 5]: 12% |
| c1ccc(OCCCCCCCSc2nc3ccccc3[nH]2)nc1 [Compound 13, 2-(7-(2-pyridyloxy)heptylthio)benzimidazole] | 150 | 20 | – |
| c1ccc(OCCCCSc2nc3ccccc3[nH]2)nc1 [Compound 11, 2-(4-(2-pyridyloxy)butylthio)benzimidazole] | 240 | 18 | – |
| c1ccc2[nH]c(SCCCCCCNc3nc4ccccc4o3)nc2c1 [Compound 32, 2-(6-(2-benzoxazolylamino)hexylthio)benzimidazole] | – | 12 | – |
| CCC(=O)n1c(SCCCCCOc2ccccn2)nc2ccccc21 [Compound 24, 1-Propionyl-2-(5-(2-pyridyloxy)pentylthio)benzimidazole] | – | 25 | – |
| C=C(C)n1c(OCCCCCSc2nc3ccccc3[nH]2)nc2ccccc21 [Compound 20, 2-(5-(2-benzimidazolylthio)pentyloxy)-1-isopropenyl-benzimidazole] | – | 22 | – |
| c1cnc(OCCCCCSc2nc3ccccc3[nH]2)nc1 [Compound 6] | 680 | 12 | – |
| Cc1ccc2nc(SCCCCCOc3ccccn3)[nH]c2c1 [Compound 16, 5-methyl-2-(5-(2-pyridyloxy)pentylthio)benzimidazole] | 1410 | 14 | – |
| 2-(5-(1-phenyltetrazolyl-5-oxy)pentylthio)benzimidazole [Compound 2] | – | – | AUC ([1]; oral 30 mg/kg suspension, BALB/cA male mice, blood level 0 to 6 hours by liquid chromatography): 1220 ng·h/mL; CE yield (%) [2]: 21% |
| Clc1cc2nc(SCCCCCOc3ccccn3)[nH]c2cc1Cl [Compound 15, 5,6-dichloro-2-(5-(2-pyridyloxy)pentylthio)benzimidazole] | 680 | 18 | – |
| c1ccc(OCCCCCCSc2nc3ccccc3[nH]2)nc1 [Compound 12, 2-(6-(2-pyridyloxy)hexylthio)benzimidazole] | – | 13 | – |
| COc1ccc2nc(SCCCCCOc3ccccn3)[nH]c2c1 [Compound 17, 5-methoxy-2-(5-(2-pyridyloxy)pentylthio)benzimidazole] | 1220 | 14 | – |

Further lines, with some results ahead:

| AUC [1, 4] [ng·h/mL] | Molecule | activity at 5 µM [2, 5] [%] | also measured |
| --- | --- | --- | --- |
| 230 | c1ccc2[nH]c(SCCCCCNc3nc4ccccc4s3)nc2c1 [Compound 30, 2-(5-(2-benzothiazolylamino)pentylthio)benzimidazole] | 4.2 | – |
| 1210 | c1ccc2[nH]c(SCCCCCCOc3ccncc3)nc2c1 [Compound 25, 2-(6-(4-pyridyloxy)hexylthio)benzimidazole] | 2.8 | – |
| 680 | c1ccc2[nH]c(SCCOCCOCCNc3nc4ccccc4o3)nc2c1 [Compound 36, 2-(2-(2-(2-(2-benzoxazolylamino)ethoxy)ethoxy)ethylthio)-benzimidazole] | 12 | – |
| 2420 | c1ccc2[nH]c(OCCCCCSc3nc4ccccc4[nH]3)nc2c1 [Compound 21, 2-(5-(2-benzimidazolylthio)pentyloxy)benzimidazole] | 18 | – |
| 860 | Cn1c(SCCCCCOc2ccccn2)nc2ccccc21 [Compound 23, 1-Methyl-2-(5-(2-pyridyloxy)pentylthio)benzimidazole] | 21 | – |
| 5520 | c1ccc2[nH]c(SCCCCCOc3ccncc3)nc2c1 [Compound 19, 2-(5-(4-pyridyloxy)pentylthio)benzimidazole] | 4.2 | – |
